In patent publication US20260176290A1, “INHIBITORS OF KRAS(G12D)” (Ranok Therapeutics (Hangzhou) Co. Ltd., priority 2022, published 2026):

What was measured:
[1] = test system: A-427 lung carcinoma cells [heterozygous G12D]; experiment: Cancer cell line proliferation (CellTiter-Glo), A-427; assay type: cell-based; details: Homo sapiens, A427 cells, 72 hr, read-out: CTG(IC50), ABS-72 H(nM) A427
Description: (§1) The following cancer cell lines were employed: AGS gastric carcinoma [heterozygous G12D] (ATCC, CRL-1739); A-427 lung carcinoma [heterozygous G12D] (ATCC, HTB-53); ASPC1 pancreatic adenocarcinoma [homozygous G12D] (ATCC, CRL-1682) and SW1990 pancreatic adenocarcinoma [homozygous G12D] (ATCC CRL-2172). Cell lines were cultured essentially according to ATCC recommendations.
(§2) AGS, A-427, ASPC1, SW1990, and GP2D cells were plated in 96-well tissue culture plates at 4,000 cells/well and incubated at 37° C./5% CO2 for 72 hr in 100 μl of media. 3-fold serial dilutions of each test compound were prepared ranging from 20 μM to 1.02 nM. Each cell line was then treated with test compounds at various concentrations with a final concentration of 0.5% DMSO/well, and then incubated at 37° C./5% CO2 for 72 hr. 100 μl of CellTiter-Glo® Reagent (Promega Corporation, Madison, WI) was added to each well and processed according manufacturer's protocol. Results were analyzed and IC50 5 values were calculated in GraphPad 7 software.

[2] = test system: ASPC1 pancreatic adenocarcinoma cells [homozygous G12D]; experiment: Cancer cell line proliferation (CellTiter-Glo), ASPC1; assay type: cell-based; details: Homo sapiens, ASPC-1 cells, 72 hr, read-out: CTG(IC50), ABS-72 H(nM) ASPC-1
Description: as §1, §2

[3] = test system: AGS gastric carcinoma cells [heterozygous G12D]; experiment: Cancer cell line proliferation (CellTiter-Glo), AGS; assay type: cell-based; details: Homo sapiens, 72 hr, read-out: CTG(IC50), ABS-72 H(nM) AGS
Description: as §1, §2

KRAS (G12D)/SOS1 = target: T1, KRAS (G12D)/SOS1 (Homo sapiens, UniProt P01116, G12D); experiment: KRAS (G12D)/SOS1 homogeneous time-resolved fluorescence (HTRF) assay; assay type: binding; details: absence of GTP, 4° C. for 3 hr
T1 construct: purchased Cisbio 63ADK000CB17PEH
Description: 3-fold serial dilutions of each test compound were prepared ranging from 20 μM to 1.02 nM. The test compound was mixed and incubated with reaction components, incubated in a sealed plate at 4° C. for 3 hr and fluorescence was measured using a PerkinElmer Envision plate reader. […]

[4] = test system: SW1990 pancreatic adenocarcinoma cells [homozygous G12D]; experiment: Cancer cell line proliferation (CellTiter-Glo), SW1990; assay type: cell-based; details: Homo sapiens, 72 hr, read-out: CTG(IC50), ABS-72 H(nM) SW1990
Description: as §1, §2

T1 sequence (P01116 1-188 isoform P01116-2 G12D): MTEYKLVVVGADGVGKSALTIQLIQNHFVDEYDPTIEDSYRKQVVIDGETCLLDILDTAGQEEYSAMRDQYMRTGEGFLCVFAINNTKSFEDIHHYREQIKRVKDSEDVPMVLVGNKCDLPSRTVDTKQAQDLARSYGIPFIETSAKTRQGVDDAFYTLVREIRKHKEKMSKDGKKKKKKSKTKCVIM

Row | SMILES | IC50 [1] [nM] | IC50 [2] [nM] | IC50 [3] [nM] | IC50 (KRAS (G12D)/SOS1) [nM] | IC50 [4] [nM]
1 | C#Cc1c(F)ccc2cc(O)cc(-c3ncc4c(N5CC6CCC(C5)N6)nc(OCC5(CN6CC[C@H](F)C6)CC5)nc4c3F)c12 [Example 15] | < 100 | < 100 | < 100 | < 100 | 
2 | C#Cc1c(F)ccc2cc(O)cc(-c3ncc4c(N5CC6CCC(C5)N6)nc(OCC5(CN6CCC[C@H](C#N)C6)CC5)nc4c3F)c12 [Example 10] | < 100 | < 100 | < 100 | < 100 | 
3 | C#Cc1c(F)ccc2cc(O)cc(-c3nc(OC(F)(F)F)c4c(N5CC6CCC(C5)N6)nc(OCC5(CN6CCC(F)CC6)CC5)nc4c3F)c12 [Example 47] |  | < 100 | < 100 | < 100 | < 100
4 | C#Cc1c(F)ccc2cc(O)cc(-c3ncc4c(N5CC6CCC(C5)N6)nc(OCC5(CN6CCC[C@@H](F)C6)CC5)nc4c3F)c12 [Example 16] | < 100 | < 100 | < 100 | < 100 | 
5 | C#Cc1c(F)ccc2cc(O)cc(-c3nc(OC)c4c(N5CC6CCC(C5)N6)nc(OCC5(CN6CC7(CC(F)C7)C6)CC5)nc4c3F)c12 [Example 50] |  | < 100 | < 100 | < 100 | < 100
6 | C#Cc1c(F)ccc2cc(O)cc(-c3ncc4c(N5CC6CCC(C5)N6)nc(OCC5(CN6CCC(OC)CC6)CC5)nc4c3F)c12 [Example 12] | 100 to 1000 | 100 to 1000 | < 100 | < 100 | 
7 | C#Cc1c(F)ccc2cc(O)cc(-c3ncc4c(N5CC6CCC(C5)N6)nc(OCC5(CN6CCC([S+](C)[O-])CC6)CC5)nc4c3F)c12 (stereo not drawn) [Example 22] | > 1000 | > 1000 | > 1000 | 100 to 1000 | 
8 | C#Cc1c(F)ccc2cc(O)cc(-c3ncc4c(N5CC6CCC(C5)N6)nc(OCC5(CN6CCC(C(C)C)CC6)CC5)nc4c3F)c12 [Example 18] | 100 to 1000 |  | < 100 | < 100 | 
9 | C#Cc1c(F)ccc2cc(O)cc(-c3ncc4c(N5CC6CCC(C5)N6)nc(OCC56CCCN5C[C@H](F)C6)nc4c3F)c12 (stereo partly drawn) [Ref. 1, reference compound] | < 100 | 100 to 1000 | < 100 |  | < 100
10 | C#Cc1cccc2cc(O)cc(-c3ncc4c(N5CC6CCC(C5)N6)nc(OCC5(CN6CC(F)C6)CC5)nc4c3F)c12 [Example 6] | < 100 | 100 to 1000 | < 100 | < 100 | 
11 | C#Cc1cccc2cc(O)cc(-c3ncc4c(N5CC6CCC(C5)N6)nc(OCC5(CN6CCC(OC)CC6)CC5)nc4c3F)c12 [Example 17] | 100 to 1000 |  | < 100 | < 100 | 
12 | C#Cc1c(F)ccc2cc(O)cc(-c3nc(OC(F)F)c4c(N5CC6CCC(C5)N6)nc(OCC5(CN6CCC(F)CC6)CC5)nc4c3F)c12 [Example 35] |  | < 100 | < 100 | < 100 | < 100
13 | C#Cc1cccc2cc(O)cc(-c3ncc4c(N5CC6CCC(C5)N6)nc(OCC5(CN6CCC(F)(F)CC6)CC5)nc4c3F)c12 [Example 5] | < 100 | < 100 | < 100 | < 100 | 
14 | C#Cc1c(F)ccc2cc(O)cc(-c3nc(N)c4c(N5CC6CCC(C5)N6)nc(OCC5(CN6CCC(F)CC6)CC5)nc4c3F)c12 [Example 46] |  | 100 to 1000 | < 100 | < 100 | < 100
15 | C#Cc1c(F)ccc2cc(O)cc(-c3nc(OC)c4c(N5CC6CCC(C5)N6)nc(OCC(=C)CN5CC6CC6C5)nc4c3F)c12 (stereo not drawn) [Example 48] |  | < 100 | < 100 | < 100 | < 100
16 | C#Cc1c(F)ccc2cc(O)cc(-c3ncc4c(N5CC6CCC(C5)N6)nc(OCC5(CN6CCCC(F)(F)C6)CC5)nc4c3F)c12 [Example 9] | 100 to 1000 | 100 to 1000 | < 100 | < 100 | 
17 | C#Cc1c(F)ccc2cc(O)cc(-c3ncc4c(N5CC6CCC(C5)N6)nc(OCC5(CN6CCC(C#N)CC6)CC5)nc4c3F)c12 [Example 11] | < 100 | < 100 | < 100 | < 100 | 
